The NIST ThermoML archive (doi:10.1016/j.jct.2005.05.007)
Numbers after ± are expanded uncertainties.

Legend:
[1] = 298.15 K; 101.33 kPa; Liquid; Vibrating tube method
[2] = refractive index (Na D-line) (dimensionless); conditions: 298.15 K; 101.33 kPa; Liquid; Standard Abbe refractometry
[3] = xn = mol fraction of the nth substance listed; conditions: 298.15 K, 101 kPa, Liquid, Vibrating tube method

CC(C)O [propan-2-ol]
mass density [1]: 780.9 ± 0.4 kg/m3
refractive index [2]: 1.3748 ± 0.0008

CO [methanol]
mass density [1]: 786.6 ± 0.4 kg/m3
refractive index [2]: 1.3265 ± 0.0008

CCC#N [propanenitrile] + CCCCO
mass density ([3]; x2 = 0.0391): 778 ± 0.4 kg/m3
mass density ([3]; x2 = 0.1177): 780.4 ± 0.4 kg/m3
mass density ([3]; x2 = 0.1625): 781.8 ± 0.4 kg/m3
mass density ([3]; x2 = 0.1984): 782.9 ± 0.4 kg/m3
mass density ([3]; x2 = 0.2481): 784.4 ± 0.4 kg/m3
mass density ([3]; x2 = 0.3398): 787.4 ± 0.4 kg/m3
mass density ([3]; x2 = 0.385): 788.7 ± 0.4 kg/m3
mass density ([3]; x2 = 0.4364): 790.2 ± 0.4 kg/m3
mass density ([3]; x2 = 0.4813): 791.6 ± 0.4 kg/m3
mass density ([3]; x2 = 0.539): 793.3 ± 0.4 kg/m3
mass density ([3]; x2 = 0.5821): 794.6 ± 0.4 kg/m3
mass density ([3]; x2 = 0.6363): 796.2 ± 0.4 kg/m3
mass density ([3]; x2 = 0.7036): 798.1 ± 0.4 kg/m3
mass density ([3]; x2 = 0.7441): 799.2 ± 0.4 kg/m3
mass density ([3]; x2 = 0.8103): 801 ± 0.4 kg/m3
mass density ([3]; x2 = 0.8795): 802.8 ± 0.4 kg/m3
mass density ([3]; x2 = 0.9334): 804.1 ± 0.4 kg/m3

CCO [ethanol]
mass density [1]: 785.1 ± 0.4 kg/m3
refractive index [2]: 1.3593 ± 0.0008

CCC#N [propanenitrile] + CC(C)O
mass density ([3]; x2 = 0.0579): 776.1 ± 0.4 kg/m3
mass density ([3]; x2 = 0.0955): 775.8 ± 0.4 kg/m3
mass density ([3]; x2 = 0.1396): 775.5 ± 0.4 kg/m3
mass density ([3]; x2 = 0.183): 775.4 ± 0.4 kg/m3
mass density ([3]; x2 = 0.2321): 775.3 ± 0.4 kg/m3
mass density ([3]; x2 = 0.2775): 775.4 ± 0.4 kg/m3
mass density ([3]; x2 = 0.3274): 775.5 ± 0.4 kg/m3
mass density ([3]; x2 = 0.3784): 775.6 ± 0.4 kg/m3
mass density ([3]; x2 = 0.4249): 775.8 ± 0.4 kg/m3
mass density ([3]; x2 = 0.4768): 776 ± 0.4 kg/m3
mass density ([3]; x2 = 0.5385): 776.4 ± 0.4 kg/m3
mass density ([3]; x2 = 0.5752): 776.6 ± 0.4 kg/m3
mass density ([3]; x2 = 0.6307): 777 ± 0.4 kg/m3
mass density ([3]; x2 = 0.6763): 777.4 ± 0.4 kg/m3
mass density ([3]; x2 = 0.7286): 777.9 ± 0.4 kg/m3
mass density ([3]; x2 = 0.7788): 778.4 ± 0.4 kg/m3
mass density ([3]; x2 = 0.8384): 779.1 ± 0.4 kg/m3
mass density ([3]; x2 = 0.8929): 779.7 ± 0.4 kg/m3
mass density ([3]; x2 = 0.9416): 780.2 ± 0.4 kg/m3

CCCCO [butan-1-ol]
mass density [1]: 805.8 ± 0.8 kg/m3
refractive index [2]: 1.397 ± 0.0008

CCCCCO [pentan-1-ol]
mass density [1]: 810.8 ± 0.8 kg/m3
refractive index [2]: 1.4078 ± 0.0008

CCCO [propan-1-ol]
mass density [1]: 799.6 ± 0.4 kg/m3
refractive index [2]: 1.3834 ± 0.0008

CCC#N [propanenitrile] + CCCCCO
mass density ([3]; x2 = 0.0353): 778.3 ± 0.4 kg/m3
mass density ([3]; x2 = 0.0649): 779.6 ± 0.5 kg/m3
mass density ([3]; x2 = 0.1026): 781.1 ± 0.5 kg/m3
mass density ([3]; x2 = 0.1379): 782.6 ± 0.5 kg/m3
mass density ([3]; x2 = 0.1786): 784.2 ± 0.5 kg/m3
mass density ([3]; x2 = 0.2164): 785.7 ± 0.5 kg/m3
mass density ([3]; x2 = 0.2613): 787.5 ± 0.5 kg/m3
mass density ([3]; x2 = 0.3031): 789.1 ± 0.5 kg/m3
mass density ([3]; x2 = 0.3464): 790.7 ± 0.6 kg/m3
mass density ([3]; x2 = 0.3917): 792.4 ± 0.6 kg/m3
mass density ([3]; x2 = 0.4396): 794.1 ± 0.6 kg/m3
mass density ([3]; x2 = 0.489): 795.8 ± 0.6 kg/m3
mass density ([3]; x2 = 0.5444): 797.7 ± 0.6 kg/m3
mass density ([3]; x2 = 0.6012): 799.5 ± 0.7 kg/m3
mass density ([3]; x2 = 0.6547): 801.2 ± 0.7 kg/m3
mass density ([3]; x2 = 0.7186): 803.2 ± 0.7 kg/m3
mass density ([3]; x2 = 0.7788): 804.9 ± 0.7 kg/m3
mass density ([3]; x2 = 0.8488): 806.9 ± 0.8 kg/m3
mass density ([3]; x2 = 0.9162): 808.7 ± 0.8 kg/m3

CCC#N [propanenitrile] + CCO
mass density ([3]; x2 = 0.0627): 776.8 ± 0.4 kg/m3
mass density ([3]; x2 = 0.129): 777 ± 0.4 kg/m3
mass density ([3]; x2 = 0.1754): 777.2 ± 0.4 kg/m3
mass density ([3]; x2 = 0.2486): 777.6 ± 0.4 kg/m3
mass density ([3]; x2 = 0.2872): 777.9 ± 0.4 kg/m3
mass density ([3]; x2 = 0.3419): 778.4 ± 0.4 kg/m3
mass density ([3]; x2 = 0.3978): 778.9 ± 0.4 kg/m3
mass density ([3]; x2 = 0.4563): 779.5 ± 0.4 kg/m3
mass density ([3]; x2 = 0.5001): 780 ± 0.4 kg/m3
mass density ([3]; x2 = 0.5577): 780.6 ± 0.4 kg/m3
mass density ([3]; x2 = 0.6025): 781.1 ± 0.4 kg/m3
mass density ([3]; x2 = 0.6433): 781.6 ± 0.4 kg/m3
mass density ([3]; x2 = 0.6925): 782.2 ± 0.4 kg/m3
mass density ([3]; x2 = 0.7416): 782.7 ± 0.4 kg/m3
mass density ([3]; x2 = 0.7823): 783.2 ± 0.4 kg/m3
mass density ([3]; x2 = 0.8218): 783.6 ± 0.4 kg/m3
mass density ([3]; x2 = 0.8737): 784.2 ± 0.4 kg/m3
mass density ([3]; x2 = 0.9146): 784.6 ± 0.4 kg/m3
mass density ([3]; x2 = 0.9565): 784.9 ± 0.4 kg/m3

CCC#N [propanenitrile]
mass density [1]: 776.8 ± 0.4 kg/m3
refractive index [2]: 1.3633 ± 0.0008

CCC#N [propanenitrile] + CCCO
mass density ([3]; x2 = 0.0465): 777.6 ± 0.4 kg/m3
mass density ([3]; x2 = 0.0955): 778.5 ± 0.4 kg/m3
mass density ([3]; x2 = 0.143): 779.4 ± 0.4 kg/m3
mass density ([3]; x2 = 0.1882): 780.3 ± 0.4 kg/m3
mass density ([3]; x2 = 0.2387): 781.4 ± 0.4 kg/m3
mass density ([3]; x2 = 0.2837): 782.4 ± 0.4 kg/m3
mass density ([3]; x2 = 0.3347): 783.6 ± 0.4 kg/m3
mass density ([3]; x2 = 0.3775): 784.6 ± 0.4 kg/m3
mass density ([3]; x2 = 0.4341): 786 ± 0.4 kg/m3
mass density ([3]; x2 = 0.4827): 787.2 ± 0.4 kg/m3
mass density ([3]; x2 = 0.5841): 789.7 ± 0.4 kg/m3
mass density ([3]; x2 = 0.6371): 791 ± 0.4 kg/m3
mass density ([3]; x2 = 0.7389): 793.5 ± 0.4 kg/m3
mass density ([3]; x2 = 0.7795): 794.5 ± 0.4 kg/m3
mass density ([3]; x2 = 0.8329): 795.8 ± 0.4 kg/m3
mass density ([3]; x2 = 0.8919): 797.2 ± 0.4 kg/m3
mass density ([3]; x2 = 0.9355): 798.2 ± 0.4 kg/m3

CCC#N [propanenitrile] + CO
mass density ([3]; x2 = 0.0822): 777.3 ± 0.4 kg/m3
mass density ([3]; x2 = 0.1672): 777.9 ± 0.4 kg/m3
mass density ([3]; x2 = 0.2338): 778.4 ± 0.4 kg/m3
mass density ([3]; x2 = 0.2992): 779 ± 0.4 kg/m3
mass density ([3]; x2 = 0.3634): 779.7 ± 0.4 kg/m3
mass density ([3]; x2 = 0.4258): 780.3 ± 0.4 kg/m3
mass density ([3]; x2 = 0.4879): 781 ± 0.4 kg/m3
mass density ([3]; x2 = 0.5403): 781.6 ± 0.4 kg/m3
mass density ([3]; x2 = 0.5844): 782.1 ± 0.4 kg/m3
mass density ([3]; x2 = 0.6226): 782.6 ± 0.4 kg/m3
mass density ([3]; x2 = 0.6752): 783.3 ± 0.4 kg/m3
mass density ([3]; x2 = 0.7183): 783.8 ± 0.4 kg/m3
mass density ([3]; x2 = 0.763): 784.4 ± 0.4 kg/m3
mass density ([3]; x2 = 0.7996): 784.8 ± 0.4 kg/m3
mass density ([3]; x2 = 0.8366): 785.3 ± 0.4 kg/m3
mass density ([3]; x2 = 0.8743): 785.8 ± 0.4 kg/m3
mass density ([3]; x2 = 0.9088): 786.1 ± 0.4 kg/m3
mass density ([3]; x2 = 0.9384): 786.3 ± 0.4 kg/m3
mass density ([3]; x2 = 0.9696): 786.5 ± 0.4 kg/m3
